The target in test [1] is T1, β5 subunit of the human constitutive proteasome (CPS) (Homo sapiens, UniProt P28074).
T1 construct: purchased Boston Biochem E-360
Description: β5 inhibition assay, human constitutive proteasome (Suc-LLVY-AMC). It counts as biochemical. The settings on record: IC50 class, Suc-LLVY-AMC substrate. As for the experimental part:
The enzymatic activity of the β5 subunit of the human constitutive proteasome (CPS) is analyzed. In another assay, which differs from the assay of the human constitutive proteasome only in using the human immunoproteasome (IPS) the enzymatic activity of the β5 subunit of the human immunoproteasome (IPS) is analyzed. […] Inhibition is indicated as IC50 [nM] (“-”=not measured).

The test system of another test is HT-29 cells. Description: CellTiter-Glo luminescent cell viability assay with HT-29 cells (72h incubation). The settings on record: Homo sapiens, HT-29, HT29 cells, read-out: CTG HT29. In kind it is cell-based, human. In outline:
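Viability read as CellTiter-Glo luminescence after 72 h compound exposure, with 10 μM staurosporine and DMSO as control wells. Seeding 400 cells per well, compound added 24 h post-plating; IC50 from curve fitting.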
In general terms: ATP-based viability assays read luminescence as a measure of living cells.

The next test relates to hPMBC. Description: Chymotrypsin-like ProteasomeGlo assay in hPBMC. It counts as cell-based. The settings on record: Homo sapiens; read-out: Pglo hPBMC. In outline:
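IC50 derived from luminescent chymotrypsin-like proteasome activity (Suc-LLVY-Glo substrate plus luciferin detection reagent). Measured after 105 min compound exposure at 37 °C, 5% CO2. Cells were human B cells purified from buffy-coat PBMC.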

pIC50: −log10 of the molar value.

As to `COCCOCCOCCOC(=O)N[C@H]1CC(=O)N2CCCC(CCOc3ccc(C)c(c3)CNC(=O)[C@H](CCc3ccccc3)NC1=O)C2` (stereo partly drawn) [Compound 220, 2-(2-(2-methoxyethoxy)ethoxy)ethyl ((9R,12R)-5^4-methyl-8,11,14-trioxo-9-phenethyl-4-oxa-7,10-diaza-1(3,1)-piperidina-5(1,3)-benzenacyclotetradecaphane-12-yl)carbamate], the pIC50 (in test [1]; in the test with HT-29 cells; with hPMBC) was above 7.00 in each case.

For the molecule `Cc1ccc2cc1CNC(=O)[C@H](CCc1ccccc1)NC(=O)[C@@H](NC(=O)C1CCCc3ccccc31)CC(=O)N1CCCC(CCO2)C1` (stereo partly drawn) [Compound 82, N-((9S,12S)-5^4-methyl-8,11,14-trioxo-9-phenethyl-4-oxa-7,10-diaza-1(3,1)-piperidina-5(1,3)-benzenacyclotetradecaphane-12-yl)-1,2,3,4-tetrahydronaphthalene-1-carboxamide], the pIC50 (in test [1]; in the test on HT-29 cells; in the test with hPMBC) was above 7.00 in each case.

For the molecule `Cc1ccc2cc1CNC(=O)[C@H](CCc1ccccc1)NC(=O)[C@@H](NC(=O)CCc1ccc3[nH]ccc3c1)CC(=O)N1CCCC(CCO2)C1` (stereo partly drawn) [Compound 182, 3-(1H-indol-5-yl)-N-((9S,12S)-5^4-methyl-8,11,14-trioxo-9-phenethyl-4-oxa-7,10-diaza-1(3,1)-piperidina-5(1,3)-benzenacyclotetradecaphane-12-yl)propanamide], the pIC50 (in test [1]; in the test with HT-29 cells; with hPMBC) was above 7.00 throughout.

Take `Cc1ccc2cc1CNC(=O)[C@H](CCc1ccccc1)NC(=O)[C@@H](NC(=O)[C@H](C)c1ccccc1)CC(=O)N1CCCC(CCO2)C1` (stereo partly drawn) [Compound 80, (2R)-N-((9S,12S)-5^4-methyl-8,11,14-trioxo-9-phenethyl-4-oxa-7,10-diaza-1(3,1)-piperidina-5(1,3)-benzenacyclotetradecaphane-12-yl)-2-phenylpropanamide]: the pIC50 (in test [1]; in the test on HT-29 cells; with hPMBC) was above 7.00 in each case.

For `CO[C@@H](C(=O)N[C@H]1CC(=O)N2CCCC(CCOc3ccc(C)c(c3)CNC(=O)[C@H](CCc3ccccc3)NC1=O)C2)c1ccccc1` (stereo partly drawn) [Compound 86, (2R)-2-methoxy-N-((9S,12S)-5^4-methyl-8,11,14-trioxo-9-phenethyl-4-oxa-7,10-diaza-1(3,1)-piperidina-5(1,3)-benzenacyclotetradecaphane-12-yl)-2-phenylacetamide], the pIC50 (in test [1]; in the test with HT-29 cells; in the test on hPMBC) was above 7.00 in each case.

`CC(=O)N[C@H]1CCCC(=O)N2CCCC(CCOc3ccc(C)c(c3)CNC(=O)[C@H](CCc3ccccc3)NC1=O)C2` (stereo partly drawn) [Compound 213, N-((9S,12S)-5^4-methyl-8,11,16-trioxo-9-phenethyl-4-oxa-7,10-diaza-1(3,1)-piperidina-5(1,3)-benzenacyclohexadecaphane-12-yl)acetamide]: the pIC50 (in test [1]; with HT-29 cells; with hPMBC) was above 7.00 throughout.

Take `Cc1ccc2cc1CNC(=O)[C@H](CCc1ccccc1)NC(=O)[C@@H](NC(=O)c1cc3cc(C(F)(F)F)ccc3n1C)CC(=O)N1CCCC(CCO2)C1` (stereo partly drawn) [Compound 87, 1-methyl-N-((9S,12S)-5^4-methyl-8,11,14-trioxo-9-phenethyl-4-oxa-7,10-diaza-1(3,1)-piperidina-5(1,3)-benzenacyclotetradecaphane-12-yl)-5-(trifluoromethyl)-1H-indole-2-carboxamide]: the pIC50 (in test [1]; with HT-29 cells; in the test on hPMBC) was above 7.00 each time.

As for `CC(=O)N[C@H]1CC(=O)N2CCCC(CCOc3ccc(C)c(c3)CNC(=O)C(c3cnn(CCCS(=O)(=O)O)c3)NC1=O)C2` (stereo partly drawn) [Compound 571, 3-(4-((12S)-12-acetamido-5^4-methyl-8,11,14-trioxo-4-oxa-7,10-diaza-1(3,1)-piperidina-5(1,3)-benzenacyclotetradecaphane-9-yl)-1H-pyrazol-1-yl)propane-1-sulfonic acid], the figures for the pIC50 (in test [1]; in the test with HT-29 cells; with hPMBC) were above 7.00, 6.00 to 6.30 and above 7.00, respectively.

Regarding `Cc1ccc2cc1CNC(=O)[C@H](CCc1ccccc1)NC(=O)[C@@H](NS(=O)(=O)CCc1ccccc1)CC(=O)N1CCCC(CCO2)C1` (stereo partly drawn) [Compound 217, N-((9S,12S)-5^4-methyl-8,11,14-trioxo-9-phenethyl-4-oxa-7,10-diaza-1(3,1)-piperidina-5(1,3)-benzenacyclotetradecaphane-12-yl)-2-phenylethane-1-sulfonamide], the pIC50 (in test [1]; in the test on HT-29 cells; in the test with hPMBC) was above 7.00 throughout.

(Values after patent US20240415819A1, “MACROCYCLIC COMPOUNDS AS PROTEASOME SUBUNIT BETA TYPE-5 INHIBITORS” (Lead Discovery Center GmbH, priority 2021, published 2024).)
